Results from patent US9873709B2 (priority 2013, dated 2018).
Counter-ions that a name gives are not always drawn.

tested on: JAK1-dependent STAT6 phosphorylation downstream of IL-13 stimulation in TF-1 human erythroleukemia cells; test: cells; conditions: TF-1, read-out: IL-13-pSTAT6 IC50

| IC50 | SMILES |
| --- | --- |
| 14 nM | CCOC(=O)N1CC=C(c2cccn3nc(Nc4ccc(C(=O)NCCc5cccnc5)cc4)nc23)CC1 [Example 2-422, ethyl 4-[2-[4-[2-(3-pyridyl)ethylcarbamoyl]anilino]-[1,2,4]triazolo[1,5-a]pyridin-8-yl]-3,6-dihydro-2H-pyridine-1-carboxylate] |
| 10.5 nM | Cc1cccnc1CN(C)C(=O)c1ccc(Nc2nc3c(C4=CCN(C(=O)CCC(F)(F)F)CC4)cccn3n2)cc1 [Example 2-476, N-methyl-N-[(3-methyl-2-pyridyl)methyl]-4-[[8-[1-(4,4,4-trifluorobutanoyl)-3,6-dihydro-2H-pyridin-4-yl]-[1,2,4]triazolo[1,5-a]pyridin-2-yl]amino]benzamide] |
| 12.3 nM | CN1CCC2(C1)CN(C(=O)c1ccc(Nc3nc4c(C5=CCN(C(=O)CCC(F)(F)F)CC5)cccn4n3)cc1)C2 [Example 2-328, 4,4,4-trifluoro-1-[4-[2-[4-(7-methyl-2,7-diazaspiro[3.4]octane-2-carbonyl)anilino]-[1,2,4]triazolo[1,5-a]pyridin-8-yl]-3,6-dihydro-2H-pyridin-1-yl]butan-1-one] |
| 916 nM | O=C(c1ccc(Nc2nc3c(N4CCC(O)(c5ccc(Cl)cc5)CC4)cccn3n2)cc1)N1CCOC2(CCNCC2)C1 [Example 1-231, [4-[[8-[4-(4-chlorophenyl)-4-hydroxy-1-piperidyl]-[1,2,4]triazolo[1,5-a]pyridin-2-yl]amino]phenyl]-(1-oxa-4,9-diazaspiro[5.5]undecan-4-yl)methanone] |
| 8.1 nM | CCOC(=O)N1CC=C(c2cccn3nc(Nc4ccc(C(=O)N5CC6(CCCN6C)C5)cc4)nc23)CC1 [Example 2-176, ethyl 4-[2-[4-(5-methyl-2,5-diazaspiro[3.4]octane-2-carbonyl)anilino]-[1,2,4]triazolo[1,5-a]pyridin-8-yl]-3,6-dihydro-2H-pyridine-1-carboxylate] |
| 60 nM | CN1CCC(N(C)C(=O)c2ccc(Nc3nc4c(C5=CCN(CC#N)CC5)cccn4n3)cc2)CC1 [Example 2-52, 4-[[8-[1-(cyanomethyl)-3,6-dihydro-2H-pyridin-4-yl]-[1,2,4]triazolo[1,5-a]pyridin-2-yl]amino]-N-methyl-N-(1-methyl-4-piperidyl)benzamide] |
| 17.3 nM | CCOC(=O)N1CC=C(c2cccn3nc(Nc4ccc(C(=O)NCCc5ccccn5)cc4)nc23)CC1 [Example 2-423, ethyl 4-[2-[4-[2-(2-pyridyl)ethylcarbamoyl]anilino]-[1,2,4]triazolo[1,5-a]pyridin-8-yl]-3,6-dihydro-2H-pyridine-1-carboxylate] |
| 26.5 nM | CC(C)CCC(=O)N1CC=C(c2cccn3nc(Nc4ccc(C(=O)N(C)C5CCN(C)CC5)cc4)nc23)CC1 [Example 2-412, N-methyl-4-[[8-[1-(4-methylpentanoyl)-3,6-dihydro-2H-pyridin-4-yl]-[1,2,4]triazolo[1,5-a]pyridin-2-yl]amino]-N-(1-methyl-4-piperidyl)benzamide] |
| 194 nM | O=C(CCC(F)(F)F)N1CC=C(c2cccn3nc(Nc4ccc(C(=O)N5CCC6(CC5)CNC6)cc4)nc23)CC1 [Example 2-314, 1-[4-[2-[4-(2,7-diazaspiro[3.5]nonane-7-carbonyl)anilino]-[1,2,4]triazolo[1,5-a]pyridin-8-yl]-3,6-dihydro-2H-pyridin-1-yl]-4,4,4-trifluoro-butan-1-one] |
| 7.3 nM | CN(C)[C@H]1CCN(C(=O)c2ccc(Nc3nc4c(C5=CCN(C(=O)CCC(F)(F)F)CC5)cccn4n3)cc2)C1 [Example 2-158, 1-[4-[2-[4-[(3S)-3-(dimethylamino)pyrrolidine-1-carbonyl]anilino]-[1,2,4]triazolo[1,5-a]pyridin-8-yl]-3,6-dihydro-2H-pyridin-1-yl]-4,4,4-trifluoro-butan-1-one] |
| 9.2 nM | CN1C(C)(C)CC(NC(=O)c2ccc(Nc3nc4c(C5=CCN(C(=O)CCC(F)(F)F)CC5)cccn4n3)cc2)CC1(C)C [Example 2-332, N-(1,2,2,6,6-pentamethyl-4-piperidyl)-4-[[8-[1-(4,4,4-trifluorobutanoyl)-3,6-dihydro-2H-pyridin-4-yl]-[1,2,4]triazolo[1,5-a]pyridin-2-yl]amino]benzamide] |
| 6.6 nM | N#CCCN1CCN(C(=O)c2ccc(Nc3nc4c(C5=CCN(C(=O)CCC(F)(F)F)CC5)cccn4n3)cc2)CC1 [Example 2-142, 3-[4-[4-[[8-[1-(4,4,4-trifluorobutanoyl)-3,6-dihydro-2H-pyridin-4-yl]-[1,2,4]triazolo[1,5-a]pyridin-2-yl]amino]benzoyl]piperazin-1-yl]propanenitrile] |
| 12.8 nM | Cc1cccc(C2CCN(C(=O)c3ccc(Nc4nc5c(C6=CCN(C(=O)CCC(F)(F)F)CC6)cccn5n4)cc3)CC2)n1 [Example 2-468, 4,4,4-trifluoro-1-[4-[2-[4-[4-(6-methyl-2-pyridyl)piperidine-1-carbonyl]anilino]-[1,2,4]triazolo[1,5-a]pyridin-8-yl]-3,6-dihydro-2H-pyridin-1-yl]butan-1-one] |
| 96.8 nM | CCOC(=O)N1CC=C(c2cccn3nc(Nc4ccc(C(=O)NC5CCCNC5)cc4)nc23)CC1 (stereo not shown) [Example 2-113, ethyl 4-[2-[4-(3-piperidylcarbamoyl)anilino]-[1,2,4]triazolo[1,5-a]pyridin-8-yl]-3,6-dihydro-2H-pyridine-1-carboxylate] |
| 10 nM | CN1CC2CN(C(=O)c3ccc(Nc4nc5c(C6=CCN(C(=O)CCC(F)(F)F)CC6)cccn5n4)cc3)CC(C1)O2 [Example 2-205, 4,4,4-trifluoro-1-[4-[2-[4-(7-methyl-9-oxa-3,7-diazabicyclo[3.3.1]nonane-3-carbonyl)anilino]-[1,2,4]triazolo[1,5-a]pyridin-8-yl]-3,6-dihydro-2H-pyridin-1-yl]butan-1-one] |

target: isolated recombinant JAK2 kinase domain (Homo sapiens (Human), UniProt O60674); test: not given; conditions: read-out: JAK2 Ki
Sequence (O60674 849-1124): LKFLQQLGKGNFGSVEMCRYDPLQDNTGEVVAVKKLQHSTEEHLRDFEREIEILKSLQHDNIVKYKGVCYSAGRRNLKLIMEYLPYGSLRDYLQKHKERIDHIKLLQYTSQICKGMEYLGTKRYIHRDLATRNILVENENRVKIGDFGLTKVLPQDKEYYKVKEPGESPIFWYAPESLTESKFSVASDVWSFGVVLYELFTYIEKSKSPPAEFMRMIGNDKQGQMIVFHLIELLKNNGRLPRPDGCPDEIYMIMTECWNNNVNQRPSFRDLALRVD

| SMILES | Ki |
| --- | --- |
| CN1CCC(N(C)C(=O)c2ccc(Nc3nc4c(Oc5ccccc5)cccn4n3)cc2)CC1 [Example 1-248, N-Methyl-N-(1-methyl-piperidin-4-yl)-4-(8-phenoxy-[1,2,4]triazolo[1,5-a]pyridine-2-ylamino)-benzamide] | 22.1 nM |

same assay, conditions: read-out: JAK2 Ki; isolated recombinant JAK2 kinase domain, 25 μM ATP

| Ki | SMILES |
| --- | --- |
| 19.1 nM | CN1CCC(N(C)C(=O)c2ccc(Nc3nc4c(N5CCC6(CNC(=O)O6)C5)cccn4n3)cc2)CC1 (stereo not shown) [Example 1-24, N-methyl-N-(1-methyl-4-piperidyl)-4-[[8-(2-oxo-1-oxa-3,7-diazaspiro[4.4]nonan-7-yl)-[1,2,4]triazolo[1,5-a]pyridin-2-yl]amino]benzamide] |
| 38.7 nM | CN1CCC(N(C)C(=O)c2ccc(Nc3nc4c(N5CCN6C(=O)COC[C@H]6C5)cccn4n3)cc2)CC1 [Example 1-33, 4-[[8-[(9aR)-4-oxo-6,7,9,9a-tetrahydro-1H-pyrazino[2,1-c][1,4]oxazin-8-yl]-[1,2,4]triazolo[1,5-a]pyridin-2-yl]amino]-N-methyl-N-(1-methyl-4-piperidyl)benzamide] |
| 10.7 nM | CN1CCC(N(C)C(=O)c2ccc(Nc3nc4c(N5CCC(C)(C(=O)NCc6ccccc6)CC5)cccn4n3)cc2)CC1 [Example 1-259, N-benzyl-4-methyl-1-[2-[4-[methyl-(1-methyl-4-piperidyl)carbamoyl]anilino]-[1,2,4]triazolo[1,5-a]pyridin-8-yl]piperidine-4-carboxamide] |
| 36.8 nM | CN1CCC(N(C)C(=O)c2ccc(Nc3nc4c(N5CCC(O)(c6ccncc6)CC5)cccn4n3)cc2)CC1 [Example 1-20, 4-[[8-[4-hydroxy-4-(4-pyridyl)-1-piperidyl]-[1,2,4]triazolo[1,5-a]pyridin-2-yl]amino]-N-methyl-N-(1-methyl-4-piperidyl)benzamide] |
| 25.5 nM | CN1CCC(N(C)C(=O)c2ccc(Nc3nc4c(N5CCC(F)(c6ccccc6)CC5)cccn4n3)cc2)CC1 [Example 1-16, 4-[[8-(4-fluoro-4-phenyl-1-piperidyl)-[1,2,4]triazolo[1,5-a]pyridin-2-yl]amino]-N-methyl-N-(1-methyl-4-piperidyl)benzamide] |
| 17.3 nM | CN1CCC(N(C)C(=O)c2ccc(Nc3nc4c(N5CCC(O)(c6cccc(Cl)c6)CC5)cccn4n3)cc2)CC1 [Example 1-18, 4-[[8-[4-(3-chlorophenyl)-4-hydroxy-1-piperidyl]-[1,2,4]triazolo[1,5-a]pyridin-2-yl]amino]-N-methyl-N-(1-methyl-4-piperidyl)benzamide] |
| 2.34 nM | CN1CCC(N(C)C(=O)c2ccc(Nc3nc4c(N5CCC(CC#N)(C6CCCC6)CC5)cccn4n3)cc2)CC1 [Example 1-257, 4-([8-[4-(cyanomethyl)-4-cyclopentylpiperidin-1-yl]-[1,2,4]triazolo[1,5-a]pyridin-2-yl]amino)-N-methyl-N-(1-methylpiperidin-4-yl)benzamide] |
| 1090 nM | CN1CCC(N(C)C(=O)c2ccc(Nc3nc4c(N5CCC(C(=O)N6CC(C)(C)C6)CC5)cccn4n3)cc2)CC1 [Example 1-42, 4-{8-[4-(3,3-Dimethyl-azetidine-1-carbonyl)-piperidin-1-yl]-1,8a-dihydro [1,2,4]triazolo[1,5a]pyridine-2-ylamino}-N-methyl-N-(1-methyl-piperidin-4-yl)-benzamide] |
| 92.4 nM | CN1CCC(N(C)C(=O)c2ccc(Nc3nc4c(N5CCC(O)CC5)cccn4n3)cc2)CC1 [Example 1-3, 4-[[8-(4-hydroxy-1-piperidyl)-[1,2,4]triazolo[1,5-a]pyridin-2-yl]amino]-N-methyl-N-(1-methyl-4-piperidyl)benzamide; hydrochloride] |
| 110 nM | CN1CCC(N(C)C(=O)c2ccc(Nc3nc4c(N5CC6CC5CN6Cc5ccccc5)cccn4n3)cc2)CC1 (stereo not shown) [Example 1-293, 4-[[8-(5-benzyl-2,5-diazabicyclo[2.2.1]heptan-2-yl)-[1,2,4]triazolo[1,5-a]pyridin-2-yl]amino]-N-methyl-N-(1-methyl-4-piperidyl)benzamide] |
| 6.37 nM | CN1CCC(N(C)C(=O)c2ccc(Nc3nc4c(N5CCC(C)(NC(=O)c6ccccc6)CC5)cccn4n3)cc2)CC1 [Example 1-302, 4-[[8-(4-benzamido-4-methyl-1-piperidyl)-[1,2,4]triazolo[1,5-a]pyridin-2-yl]amino]-N-methyl-N-(1-methyl-4-piperidyl)benzamide] |

| SMILES | Ki |
| --- | --- |
| CN1CCC(N(C)C(=O)c2ccc(Nc3nc4c(N5CCC(C)(N(C)S(=O)(=O)c6ccccc6)CC5)cccn4n3)cc2)CC1 [Example 1-261] | 3.56 nM |
